The results in this text go back to patent US12252524B2, “GIP/GLP1 co-agonist compounds” (Eli Lilly and Company, priority 2018, dated 2025).

Numbered stars: 1 amine (or outer) side, 2 acyl side, 3 side chain; on linkers, the order of the positions; unused ones are H or OH. Square brackets hold non-standard residues; d marks the D form. Side chains are listed from the residue outwards. Peptide text beside a SMILES is read from it. * marks the point of attachment. C20 diacid = O=C(O)CCCCCCCCCCCCCCCCCCC(=O)*; γGlu = O=C(O)[C@H](CCC(=O)[*:2])N[*:1]; αMeL = CC(C)C[C@](C)(N)C(=O)O; AEEA = NCCOCCOCC(=O)O; Aib = CC(C)(N)C(=O)O

The target of assay [1] is T1, human Gcg receptor (Homo sapiens, UniProt P47871).
T1 construct: expressed in transfected cells; crude membranes
T1 sequence (P47871 26-477): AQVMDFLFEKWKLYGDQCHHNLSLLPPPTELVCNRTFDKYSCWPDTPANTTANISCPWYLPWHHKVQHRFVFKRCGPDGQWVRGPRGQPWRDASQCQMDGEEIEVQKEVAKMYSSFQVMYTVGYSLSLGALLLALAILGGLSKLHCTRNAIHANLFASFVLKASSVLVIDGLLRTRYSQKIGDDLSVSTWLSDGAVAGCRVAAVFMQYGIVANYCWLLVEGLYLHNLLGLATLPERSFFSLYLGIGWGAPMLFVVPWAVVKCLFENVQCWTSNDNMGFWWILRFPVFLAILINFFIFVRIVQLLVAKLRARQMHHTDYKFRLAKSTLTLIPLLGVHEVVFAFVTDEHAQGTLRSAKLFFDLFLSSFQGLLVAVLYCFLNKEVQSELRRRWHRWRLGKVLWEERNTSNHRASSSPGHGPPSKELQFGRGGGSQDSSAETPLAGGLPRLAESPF
Description: [125I]-Glucagon binding (SPA), human Gcg receptor. The conditions noted are these: read-out: hGLcgR Ki, nM (SEM, n). Put shortly: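 Crude membranes from cells expressing the receptor, prepared by hypotonic lysis in 50 mM Tris HCl pH 7.5 with protease inhibitors, homogenization and differential centrifugation, were used in a WGA-bead SPA. Binding buffer: 25 mM HEPES pH 7.4, 2.5 mM CaCl2, 1 mM MgCl2, bacitracin, Tween-20.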

Assay [2] concerns the target T2, human GIP receptor (Homo sapiens, UniProt P48546).
T2 construct: expressed in transfected cells; crude membranes
T2 sequence (P48546 22-466): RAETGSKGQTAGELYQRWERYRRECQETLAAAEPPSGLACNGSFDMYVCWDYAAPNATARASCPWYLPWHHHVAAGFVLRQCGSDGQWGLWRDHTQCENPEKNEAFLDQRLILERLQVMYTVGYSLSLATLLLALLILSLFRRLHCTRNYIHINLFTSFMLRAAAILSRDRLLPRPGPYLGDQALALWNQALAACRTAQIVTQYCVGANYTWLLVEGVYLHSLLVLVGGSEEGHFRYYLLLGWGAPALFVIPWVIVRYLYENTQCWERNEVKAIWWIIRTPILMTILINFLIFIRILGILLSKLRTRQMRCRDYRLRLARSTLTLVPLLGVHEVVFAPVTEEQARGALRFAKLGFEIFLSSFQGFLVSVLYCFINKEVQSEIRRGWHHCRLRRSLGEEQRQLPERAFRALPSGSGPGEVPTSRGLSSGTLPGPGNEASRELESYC
The assay is described as follows: [125I]-GIP binding (SPA), human GIP receptor. Particulars: read-out: hGIPR Ki, nM (SEM, n).

The target in assay [3] is human GLP-1 receptor (GLP-1R) (Homo sapiens, UniProt P43220). Description: cAMP pharmacological functional assay in presence of casein, hGLP-1R. In kind it is cell-based. The conditions noted are these: HEK293 cells expressing hGLP-1R, 0.1% Casein, geometric mean; read-out: hGLP1R cAMP Rel EC50 nM (SEM, n).
Sequence of human GLP-1 receptor (GLP-1R) (P43220 24-463): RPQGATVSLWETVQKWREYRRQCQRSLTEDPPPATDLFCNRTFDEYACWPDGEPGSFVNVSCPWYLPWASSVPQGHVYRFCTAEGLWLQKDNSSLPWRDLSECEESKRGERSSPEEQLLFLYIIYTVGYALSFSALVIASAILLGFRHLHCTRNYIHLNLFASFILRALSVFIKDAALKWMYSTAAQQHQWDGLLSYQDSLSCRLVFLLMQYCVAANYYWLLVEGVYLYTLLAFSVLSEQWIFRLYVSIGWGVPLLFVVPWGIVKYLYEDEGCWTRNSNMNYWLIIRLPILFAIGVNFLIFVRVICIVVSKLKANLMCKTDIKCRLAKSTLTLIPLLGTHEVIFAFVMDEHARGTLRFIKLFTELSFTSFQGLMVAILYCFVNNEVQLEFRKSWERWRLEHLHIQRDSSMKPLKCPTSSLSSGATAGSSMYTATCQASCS
Assay [4] has as its target T3, gastric inhibitory peptide receptor (GIPR) (Homo sapiens, UniProt P48546).
T3 sequence (P48546 22-466): T2 sequence (P48546 22-466)
The assay is described as follows: cAMP pharmacological functional assay in presence of casein, hGIPR. In kind it is cell-based. Particulars: HEK293 cells expressing hGIPR, 0.1% Casein, geometric mean; read-out: hGIPR cAMP Rel EC50 nM (SEM, n).

For assay [5], the target named is human GLP-1R (Homo sapiens, UniProt P43220). The assay is described as follows: [125I]-GLP-1 binding (SPA), human GLP-1 receptor. Set-up: expressed in transfected cells; crude membranes. Particulars: read-out: hGLP1R Ki, (nM) (SEM, n). A digest of the protocol:
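Assay buffer: HEPES 25 mM, pH 7.4, CaCl2 2.5 mM, MgCl2 1 mM, with EDTA-free protease inhibitors. Receptor came from crude cell membranes prepared by homogenization and centrifugation at 4° C. IC50s came from four-parameter fits (maximum, minimum, IC50, Hill slope) and were expressed as Ki geometric means with SEM.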

Sequence of human GLP-1R (P43220 24-463): as above

In general, Ki refers to the dissociation constant of the complex between target and ligand, obtained from inhibition or displacement. What is called EC50 is the concentration at which the effect is half-maximal. For the molecule `CC[C@H](C)[C@H](NC(=O)[C@H](CC(C)C)NC(=O)[C@H](Cc1ccc(O)cc1)NC(=O)[C@H](CCC(=O)O)NC(=O)[C@@H](NC(=O)[C@H](Cc1ccccc1)NC(=O)[C@H](C)NC(=O)C(C)(C)NC(=O)[C@H](CCC(N)=O)NC(=O)[C@H](C)NC(=O)[C@H](CCCCNC(=O)COCCOCCNC(=O)COCCOCCNC(=O)CC[C@H](NC(=O)CCCCCCCCCCCCCCCCCCC(=O)O)C(=O)O)NC(=O)[C@H](CCCCN)NC(=O)[C@H](CC(=O)O)NC(=O)[C@H](CC(C)C)NC(=O)[C@](C)(CC(C)C)NC(=O)[C@@H](NC(=O)[C@H](CO)NC(=O)[C@H](Cc1ccc(O)cc1)NC(=O)[C@H](CC(=O)O)NC(=O)[C@H](CO)NC(=O)[C@@H](NC(=O)[C@H](Cc1ccccc1)NC(=O)[C@@H](NC(=O)CNC(=O)[C@H](CCC(=O)O)NC(=O)C(C)(C)NC(=O)[C@@H](N)Cc1ccc(O)cc1)[C@@H](C)O)[C@@H](C)O)[C@@H](C)CC)[C@@H](C)CC)C(=O)N[C@@H](CCC(=O)O)C(=O)NCC(=O)NCC(N)=O` [Example 62] (H-Y[Aib]EGTFTSDYSI[αMeL]LDKK([AEEA-AEEA-γGlu-C20 diacid])AQ[Aib]AFIEYLIEGG-NH2), the Ki in assay [1] came out at 168 nM; in assay [2], 0.0545 nM; in assay [5], 2.03 nM. In addition, the EC50 was 0.159 nM in assay [3] and 0.0601 nM in assay [4].

For the molecule `CC[C@H](C)[C@H](NC(=O)[C@H](CC(C)C)NC(=O)[C@H](Cc1ccc(O)cc1)NC(=O)[C@H](CCC(=O)O)NC(=O)[C@@H](NC(=O)[C@H](Cc1ccccc1)NC(=O)[C@H](C)NC(=O)C(C)(C)NC(=O)[C@H](CCC(N)=O)NC(=O)[C@H](C)NC(=O)[C@H](CCCCNC(=O)COCCOCCNC(=O)COCCOCCNC(=O)CC[C@H](NC(=O)CCCCCCCCCCCCCCCCCCC(=O)O)C(=O)O)NC(=O)[C@H](CCC(=O)O)NC(=O)[C@H](CC(=O)O)NC(=O)[C@H](CC(C)C)NC(=O)[C@](C)(CC(C)C)NC(=O)[C@@H](NC(=O)[C@H](CO)NC(=O)[C@H](Cc1ccc(O)cc1)NC(=O)[C@H](CC(=O)O)NC(=O)[C@H](CO)NC(=O)[C@@H](NC(=O)[C@H](Cc1ccccc1)NC(=O)[C@@H](NC(=O)CNC(=O)[C@H](CCC(=O)O)NC(=O)C(C)(C)NC(=O)[C@@H](N)Cc1ccc(O)cc1)[C@@H](C)O)[C@@H](C)O)[C@@H](C)CC)[C@@H](C)CC)C(=O)N[C@@H](CCC(=O)O)C(=O)NCC(=O)NCC(N)=O` [Example 63] (H-Y[Aib]EGTFTSDYSI[αMeL]LDEK([AEEA-AEEA-γGlu-C20 diacid])AQ[Aib]AFIEYLIEGG-NH2), the Ki in assay [1] worked out at 273 nM; in assay [2] it was 0.141 nM; in assay [5], 7.79 nM. The EC50 in assay [3] came to 0.19 nM; in assay [4] it was 0.0925 nM.

As for `CC[C@H](C)[C@H](NC(=O)[C@H](CC(C)C)NC(=O)[C@H](Cc1ccc(O)cc1)NC(=O)[C@H](CCC(=O)O)NC(=O)[C@@H](NC(=O)[C@H](Cc1ccccc1)NC(=O)[C@H](C)NC(=O)C(C)(C)NC(=O)[C@H](CCC(N)=O)NC(=O)[C@H](C)NC(=O)[C@H](CCCCNC(=O)COCCOCCNC(=O)COCCOCCNC(=O)CC[C@H](NC(=O)CCCCCCCCCCCCCCCCCCC(=O)O)C(=O)O)NC(=O)[C@H](CO)NC(=O)[C@H](CC(=O)O)NC(=O)[C@H](CC(C)C)NC(=O)[C@](C)(CC(C)C)NC(=O)[C@@H](NC(=O)[C@H](CO)NC(=O)[C@H](Cc1ccc(O)cc1)NC(=O)[C@H](CC(=O)O)NC(=O)[C@H](CO)NC(=O)[C@@H](NC(=O)[C@H](Cc1ccccc1)NC(=O)[C@@H](NC(=O)CNC(=O)[C@H](CCC(=O)O)NC(=O)C(C)(C)NC(=O)[C@@H](N)Cc1ccc(O)cc1)[C@@H](C)O)[C@@H](C)O)[C@@H](C)CC)[C@@H](C)CC)C(=O)N[C@@H](CCC(=O)O)C(=O)NCC(=O)NCC(N)=O` [Example 64] (H-Y[Aib]EGTFTSDYSI[αMeL]LDSK([AEEA-AEEA-γGlu-C20 diacid])AQ[Aib]AFIEYLIEGG-NH2), the Ki was found to be 260 nM in assay [1], 0.0866 nM in assay [2] and 4.86 nM in assay [5]. Besides, the EC50 came to 0.172 nM in assay [3] and 0.0916 nM in assay [4].

With `CC[C@H](C)[C@H](NC(=O)[C@H](CC(C)C)NC(=O)[C@H](Cc1ccc(O)cc1)NC(=O)[C@H](CCC(=O)O)NC(=O)[C@@H](NC(=O)[C@H](Cc1ccccc1)NC(=O)[C@H](C)NC(=O)C(C)(C)NC(=O)[C@H](CCC(N)=O)NC(=O)[C@H](C)NC(=O)[C@H](CCCCNC(=O)COCCOCCNC(=O)COCCOCCNC(=O)CC[C@H](NC(=O)CCCCCCCCCCCCCCCCCCC(=O)O)C(=O)O)NC(=O)[C@@H](NC(=O)[C@H](CC(=O)O)NC(=O)[C@H](CC(C)C)NC(=O)[C@](C)(CC(C)C)NC(=O)[C@@H](NC(=O)[C@H](CO)NC(=O)[C@H](Cc1ccc(O)cc1)NC(=O)[C@H](CC(=O)O)NC(=O)[C@H](CO)NC(=O)[C@@H](NC(=O)[C@H](Cc1ccccc1)NC(=O)[C@@H](NC(=O)CNC(=O)[C@H](CCC(=O)O)NC(=O)C(C)(C)NC(=O)[C@@H](N)Cc1ccc(O)cc1)[C@@H](C)O)[C@@H](C)O)[C@@H](C)CC)[C@@H](C)O)[C@@H](C)CC)C(=O)N[C@@H](CCC(=O)O)C(=O)NCC(=O)NCC(N)=O` [Example 65] (H-Y[Aib]EGTFTSDYSI[αMeL]LDTK([AEEA-AEEA-γGlu-C20 diacid])AQ[Aib]AFIEYLIEGG-NH2; N-terminus assumed), the Ki in assay [1] amounted to 194 nM; in assay [2], 0.0643 nM; in assay [5] it was 4.53 nM. Moreover, the EC50 turned out to be 0.289 nM in assay [3] and 0.143 nM in assay [4].

As to `CC[C@H](C)[C@H](NC(=O)[C@H](Cc1ccccc1)NC(=O)[C@H](C)NC(=O)C(C)(C)NC(=O)[C@H](CCC(N)=O)NC(=O)[C@H](C)NC(=O)[C@H](CCCCNC(=O)COCCOCCNC(=O)COCCOCCNC(=O)CC[C@H](NC(=O)CCCCCCCCCCCCCCCCCCC(=O)O)C(=O)O)NC(=O)[C@H](CCC(=O)O)NC(=O)[C@H](CC(=O)O)NC(=O)[C@H](CC(C)C)NC(=O)[C@](C)(CC(C)C)NC(=O)[C@@H](NC(=O)[C@H](CO)NC(=O)[C@H](Cc1ccc(O)cc1)NC(=O)[C@H](CC(=O)O)NC(=O)[C@H](CO)NC(=O)[C@@H](NC(=O)[C@H](Cc1ccccc1)NC(=O)[C@@H](NC(=O)CNC(=O)[C@H](CCC(=O)O)NC(=O)C(C)(C)NC(=O)[C@@H](N)Cc1ccc(O)cc1)[C@@H](C)O)[C@@H](C)O)[C@@H](C)CC)C(=O)N[C@@H](CCC(=O)O)C(=O)N[C@@H](Cc1ccc(O)cc1)C(=O)N[C@@H](CC(C)C)C(=O)N[C@@H](CC(C)C)C(=O)N[C@@H](CCC(=O)O)C(=O)NCC(=O)NCC(=O)N1CCC[C@H]1C(=O)N[C@@H](CO)C(=O)N[C@@H](CO)C(=O)NCC(=O)N[C@@H](C)C(=O)N1CCC[C@H]1C(=O)N1CCC[C@H]1C(=O)N1CCC[C@H]1C(=O)N[C@@H](CO)C(N)=O` [Example 66] (H-Y[Aib]EGTFTSDYSI[αMeL]LDEK([AEEA-AEEA-γGlu-C20 diacid])AQ[Aib]AFIEYLLEGGPSSGAPPPS-NH2), the values for the Ki in assay [1], in assay [2] and in assay [5] were 93.7 nM, 0.106 nM and 7.53 nM, respectively. Moreover, the EC50 in assay [3] stood at 0.285 nM; in assay [4] it was 0.0743 nM.

Take `CC[C@H](C)[C@H](NC(=O)[C@H](CC(C)C)NC(=O)[C@H](Cc1ccc(O)cc1)NC(=O)[C@H](CCC(=O)O)NC(=O)[C@@H](NC(=O)[C@](C)(Cc1ccccc1)NC(=O)[C@H](C)NC(=O)C(C)(C)NC(=O)[C@H](CCC(N)=O)NC(=O)[C@H](C)NC(=O)[C@H](CCCCNC(=O)COCCOCCNC(=O)COCCOCCNC(=O)CC[C@H](NC(=O)CCCCCCCCCCCCCCCCCCC(=O)O)C(=O)O)NC(=O)[C@H](CCCCN)NC(=O)[C@H](CC(=O)O)NC(=O)[C@H](CC(C)C)NC(=O)[C@H](CC(C)C)NC(=O)[C@@H](NC(=O)[C@H](CO)NC(=O)[C@H](Cc1ccc(O)cc1)NC(=O)[C@H](CC(=O)O)NC(=O)[C@H](CO)NC(=O)[C@@H](NC(=O)[C@H](Cc1ccccc1)NC(=O)[C@@H](NC(=O)CNC(=O)[C@H](CCC(=O)O)NC(=O)C(C)(C)NC(=O)[C@@H](N)Cc1ccc(O)cc1)[C@@H](C)O)[C@@H](C)O)[C@@H](C)CC)[C@@H](C)CC)C(=O)N[C@@H](CCC(=O)O)C(=O)NCC(=O)NCC(=O)N1CCC[C@H]1C(=O)N[C@@H](CO)C(=O)N[C@@H](CO)C(=O)NCC(=O)N[C@@H](C)C(=O)N1CCC[C@H]1C(=O)N1CCC[C@H]1C(=O)N1CCC[C@H]1C(=O)N[C@@H](CO)C(N)=O` [Example 67]: the Ki is 270 nM in assay [1], 0.061 nM in assay [2] and 10.2 nM in assay [5]. In addition, the EC50 in assay [3] came to 0.447 nM; in assay [4], 0.0913 nM.
